For 1 molecule, Kd results are on record in PMC9770960 (Science Advances, 2022).

The assay has as its target T1, Rec1-resilin (Drosophila melanogaster, UniProt Q9V7U0).
T1 sequence (Q9V7U0 18-322 limits assumed): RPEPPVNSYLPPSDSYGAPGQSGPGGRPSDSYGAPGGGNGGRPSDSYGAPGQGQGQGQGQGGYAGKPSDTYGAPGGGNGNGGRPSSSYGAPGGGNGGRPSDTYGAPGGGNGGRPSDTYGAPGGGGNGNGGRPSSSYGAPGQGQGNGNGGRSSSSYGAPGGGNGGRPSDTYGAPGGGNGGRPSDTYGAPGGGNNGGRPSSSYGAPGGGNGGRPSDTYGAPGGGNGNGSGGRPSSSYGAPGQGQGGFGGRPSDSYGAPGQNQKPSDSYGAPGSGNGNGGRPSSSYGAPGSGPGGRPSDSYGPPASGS
In words: ANS fluorescence titration, Scatchard plot. The class given is binding.

Where a name gives a salt, the structure may show the parent alone.

As usually defined, the Kd is the free concentration of one partner at which half of the binding sites on the other are occupied at equilibrium, for simple one-to-one binding. In turn, `O=S(=O)(O)c1cccc2cccc(Nc3ccccc3)c12` [ANS, 8-anilino-1-naphthalenesulfonic acid (ammonium salt)] displayed a Kd of 58.8 µM. This counts as double-digit micromolar.
